{"source": "paper PMC5177629", "about": "“Selective Estrogen Receptor Modulators: Cannabinoid Receptor Inverse Agonists with Differential CB1 and CB2 Selectivity” (Frontiers in Pharmacology, 2016)", "key": {"[1]": {"target": "T1, human cannabinoid type-1 receptors (hCB1) (Homo sapiens, UniProt P21554)", "T1 construct": "host or cells: CHO cells (CHO-hCB1), membranes or intact cells", "T1 sequence (P21554 whole entry)": "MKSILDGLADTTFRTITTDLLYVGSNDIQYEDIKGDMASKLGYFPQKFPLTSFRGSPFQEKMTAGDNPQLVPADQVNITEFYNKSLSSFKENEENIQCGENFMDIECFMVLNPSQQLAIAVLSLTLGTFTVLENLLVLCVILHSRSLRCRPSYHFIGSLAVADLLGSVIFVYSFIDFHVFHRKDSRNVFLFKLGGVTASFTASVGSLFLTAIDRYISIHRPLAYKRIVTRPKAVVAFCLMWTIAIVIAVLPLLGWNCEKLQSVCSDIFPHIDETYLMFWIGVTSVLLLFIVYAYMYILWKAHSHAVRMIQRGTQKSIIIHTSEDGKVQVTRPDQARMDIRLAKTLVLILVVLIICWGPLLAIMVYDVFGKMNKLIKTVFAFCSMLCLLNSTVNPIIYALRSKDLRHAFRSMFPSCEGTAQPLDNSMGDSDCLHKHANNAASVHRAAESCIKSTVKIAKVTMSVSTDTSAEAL", "test": "Competition receptor binding with [3H]CP-55,940, CHO-hCB1 membranes", "details": "single 1 μM concentration, 0.2 nM [3H]CP-55,940, CHO-hCB1", "description": "(§1) In short, pellets were thawed on ice, combined in a 40 ml glass Dounce homogenizer and homogenized in 20 ml of cold buffer (50 mM HEPES at pH 7.4, 3 mM MgCl2, and 1 mM EGTA) using 10 strokes. Homogenates were then centrifuged at 40,000 × g for 10 min at 4°C. After discarding the supernatant, pellets were homogenized and centrifuged twice more. Final pellets were re-suspended in ice-cold 50 mM HEPES, pH 7.4, aliquoted and stored at -80°C for future use. Protein concentration was determined the same day, prior to freezing, using BCA^TM Protein Assay (Thermo Fisher Scientific, Waltham, MA, USA).\nThe final volume of each sample was 1 ml, containing 50 mM Tris-HCl buffer (pH 7.4), 0.05% bovine serum albumin, 5 mM MgCl2, increasing concentrations of non-radioactive competing SERM ligands, and either 100 μg of CHO-hCB1 or 50 μg of CHO-hCB2 membrane homogenates. […] Each sample condition was performed in triplicate and allowed to reach equilibrium at room temperature for 90 min. Reactions were terminated by rapid vacuum filtration through Whatman GF/B glass fiber filters (Brandel, Inc.), followed by four 4 ml washes of ice-cold filtration buffer (50 mM Tris at pH 7.4 and 0.05% BSA). Filter punches of individual samples were placed in scintillation vials containing 4 mls of ScintiverseTM BD cocktail scintillation fluid (Fisher Scientific, Pittsburg, PA, USA). Final counts were determined using liquid scintillation spectrophotometry (Tri Carb 2100 TR Liquid Scintillation Analyzer, Packard Instrument Company, Meriden, CT, USA) after overnight incubation.\n(§2) Statistical analyses were conducted by utilizing GraphPad Prism v6.0g (GraphPad Software, Inc.; San Diego, CA, USA). IC50 values from competition receptor binding curves were derived by non-linear regression. […] Non-linear regression analysis of concentration-effect curves was also used to determine potency (ED50 or IC50) and efficacy (Emax or Imax) for modulation of GTPγS and adenylyl cyclase activity, respectively. All IC50, EC50, Ki, and Kb values were converted to pEC50, pIC50, pKi, and pKb values in order to permit use of parametric statistical analyses. For all experiments comparing three or more values, an one-way ANOVA was employed, followed by Dunnett’s or Tukey’s post hoc tests. For comparisons of two values, an unpaired t-test was utilized. To determine significant radioligand displacement or modulation of G-protein activity compared to basal levels, a one-sample t-test was employed.\n(§3) For initial comparison of potential SERM binding to CBRs, 14 commercially available compounds from 5 structurally distinct classes (Figure 1) were subjected to a radioligand binding screen (Figure 2)."}, "[2]": {"target": "T1, human cannabinoid type-1 receptors (hCB1)", "test": "[35S]GTPγS binding, CHO-hCB1 membranes", "assay_type": "biochemical", "details": "[35S]GTPγS binding, CHO-hCB1, compared with AM-251", "description": "as §1\n(§4) Non-specific binding was defined by radioactivity remaining in the presence of 10 μM of non-radioactive GTPγS. All reactions were incubated for 30 min at 30°C, terminated by filtration through Whatman GF/B glass fiber filters (Brandel, Inc.) and followed by four 4 ml washes of ice cold filtration buffer (50 mM HEPES, pH 7.4) containing 0.1% bovine serum albumin. Filter punches of individual samples were placed in scintillation vials containing 4 mls of ScintiverseTM BD cocktail scintillation fluid (Fisher Scientific, Pittsburg, PA, USA). Final counts were determined using liquid scintillation spectrophotometry (Tri Carb 2100 TR Liquid Scintillation Analyzer, Packard Instrument Company, Meriden, CT, USA) after overnight incubation.\nas §2\n(§5) CBRs are coupled to Gi/Go type G-proteins. Therefore, binding of agonists to CBRs leads to G-protein activation, antagonists produce no effect, and inverse agonists reduce basal G-protein activity produced by constitutively active receptors. SERMs were screened by examining the ability of a single receptor saturating concentration (10 μM) to modulate G-protein activity in membranes prepared from CHO-hCB1 and CHO-hCB2 cells. G-protein activation was quantified using employing [^35S]GTPγS, a non-hydrolyzable analog of GTP, that irreversibly binds to the G-proteins when activated."}, "[3]": {"target": "T2, human cannabinoid type-2 receptors (hCB2) (Homo sapiens, UniProt P34972)", "T2 construct": "expressed in transfected cells; host or cells: CHO cells (CHO-hCB2), membranes or intact cells", "T2 sequence (P34972 whole entry)": "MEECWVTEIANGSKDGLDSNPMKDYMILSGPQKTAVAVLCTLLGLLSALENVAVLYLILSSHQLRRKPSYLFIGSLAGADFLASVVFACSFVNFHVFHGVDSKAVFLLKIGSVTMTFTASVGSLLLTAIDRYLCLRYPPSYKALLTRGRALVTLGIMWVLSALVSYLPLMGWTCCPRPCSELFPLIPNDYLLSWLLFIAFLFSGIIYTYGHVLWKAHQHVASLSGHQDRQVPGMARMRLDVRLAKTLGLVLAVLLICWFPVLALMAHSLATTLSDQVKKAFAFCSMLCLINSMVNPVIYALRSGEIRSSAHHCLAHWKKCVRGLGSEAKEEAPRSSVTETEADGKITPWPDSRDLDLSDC", "test": "Competition receptor binding with [3H]CP-55,940, CHO-hCB2 membranes", "details": "single 1 μM concentration, 0.2 nM [3H]CP-55,940, CHO-hCB2", "description": "as §1, with “Membrane homogenates were prepared for competition receptor binding and [^35S]GTPγS binding studies by using pellets previously frozen of CHO-hCB1 or CHO-hCB2 cells as described in ([Franks et al., 2014]). In” for “In”\nThe final volume of each sample was 1 ml, containing 50 mM Tris-HCl buffer (pH 7.4), 0.05% bovine serum albumin, 5 mM MgCl2, increasing concentrations of non-radioactive competing SERM ligands, and either 100 μg of CHO-hCB1 or 50 μg of CHO-hCB2 membrane homogenates. Non-specific binding was defined by radioactivity remaining in the presence of 1 μM of the non-radioactive CB1/CB2 agonist WIN-55,212-2. Each sample condition was performed in triplicate and allowed to reach equilibrium at room temperature for 90 min. Reactions were terminated by rapid vacuum filtration through Whatman GF/B glass fiber filters (Brandel, Inc.), followed by four 4 ml washes of ice-cold filtration buffer (50 mM Tris at pH 7.4 and 0.05% BSA). Filter punches of individual samples were placed in scintillation vials containing 4 mls of ScintiverseTM BD cocktail scintillation fluid (Fisher Scientific, Pittsburg, PA, USA). Final counts were determined using liquid scintillation spectrophotometry (Tri Carb 2100 TR Liquid Scintillation Analyzer, Packard Instrument Company, Meriden, CT, USA) after overnight incubation.\nStatistical analyses were conducted by utilizing GraphPad Prism v6.0g (GraphPad Software, Inc.; San Diego, CA, USA). IC50 values from competition receptor binding curves were derived by non-linear regression. Experimental IC50 values were converted to Ki values (a measure of receptor affinity) by using the Cheng–Prusoff equation ([Cheng and Prusoff, 1973]). Non-linear regression analysis of concentration-effect curves was also used to determine potency (ED50 or IC50) and efficacy (Emax or Imax) for modulation of GTPγS and adenylyl cyclase activity, respectively. All IC50, EC50, Ki, and Kb values were converted to pEC50, pIC50, pKi, and pKb values in order to permit use of parametric statistical analyses. For all experiments comparing three or more values, an one-way ANOVA was employed, followed by Dunnett’s or Tukey’s post hoc tests. For comparisons of two values, an unpaired t-test was utilized. To determine significant radioligand displacement or modulation of G-protein activity compared to basal levels, a one-sample t-test was employed.\nas §3"}, "[4]": {"target": "T2, human cannabinoid type-2 receptors (hCB2)", "test": "[35S]GTPγS binding, CHO-hCB2 membranes", "assay_type": "biochemical", "details": "for intrinsic activity at hCB2Rs (partial or full inverse agonist): [35S]GTPγS binding, CHO-hCB2, 10 μM, compared with AM-630", "description": "as §1, §4, §2, §5"}, "[5]": {"target": "T2, human cannabinoid type-2 receptors (hCB2)", "test": "Adenylyl cyclase assay (forskolin-stimulated cAMP), intact CHO-hCB2 cells", "assay_type": "cell-based", "description": "(§6) Briefly, cells cultured between passages 4 and 15 were seeded into 24-well plates at a concentration of 6.5 million cells per plate and incubated overnight in a humidified incubator maintained at 37°C and 5% CO2. Growth media was removed the next day and replaced with media containing […] [^3H]adenine, 0.9g/L NaCl, and 0.5 mM isobutyl-methyl-xanthine (IBMX) for 2–3 h. Radioactive media was then removed and each well treated with 0.5 ml of varying concentrations of SERM compounds in a Krebs-Ringer-HEPES solution (10 mM HEPES, 110 mM NaCl, 25 mM Glucose, 55 mM Sucrose, 5 mM KCl, 1 mM MgCl2, 1.8 mM CaCl2, pH 7.4) containing 0.5 mM IBMX and 10 μM forskolin. Plates were then floated in a 37°C water bath for 15 min before reactions were terminated by addition of 50 μL of 2.2 N HCl to each well.\nas §2\nTo provide a second measure of intrinsic activity, the ability of SERMs to modulate intracellular levels of cAMP in intact cells was examined (Figure 6). CBRs couple to Gi/Go-proteins, and thus cannabinoid agonists inhibit activity of the downstream intracellular effector adenylyl cyclase, reducing intracellular cAMP levels."}, "[6]": {"target": "T2, human cannabinoid type-2 receptors (hCB2)", "test": "Antagonism of CP-55,940 inhibition of adenylyl cyclase, intact CHO-hCB2 cells", "assay_type": "cell-based", "description": "as §6\n(§7) Reactions were then terminated by adding 50 μL of 2.2 N HCl to each well. [^3H]cAMP was isolated using alumina column chromatography and radioactivity quantified following addition of 10 mls of scintiverseTM BD cocktail scintillation fluid (Fisher Scientific, Pittsburg, PA, USA) by liquid scintillation spectrophotometry (Tri Carb 2100 TR Liquid Scintillation Analyzer, Packard Instrument Company, Meriden, CT, USA).\nas §2\n(§8) IC50 and Kb values were converted to pIC50 and pKb values (pIC50 = -Log[IC50] or pKb = -Log[Kb], respectively) to allow use of parametric statistics for comparison."}, "[7]": {"target": "T1, human cannabinoid type-1 receptors (hCB1)", "test": "Antagonism of CP-55,940 inhibition of adenylyl cyclase, intact CHO-hCB1 cells", "assay_type": "cell-based", "description": "as §6, §7, §2, §8"}}, "note": "Entries after “also recorded” stand apart in the source; their conditions may differ. Marks after values point to notes of the source that are not given here.", "data": [{"compound": "4-hydroxy-tamoxifen [4OH-TX]", "values": [{"measurement": "displacement of [3H]CP-55,940 from hCB1Rs", "setting": "[1]", "value": "approximately 50%"}, {"measurement": "intrinsic activity at CB1Rs (partial or full inverse agonist)", "setting": "[2]", "value": "partial"}]}, {"compound": "CC1=C(c2ccc(O)cc2)[C@H](c2ccc(OCCN3CCCCC3)cc2)Oc2cc(O)ccc21", "note": "[acolbifene]", "values": [{"measurement": "displacement of [3H]CP-55,940 from hCB1Rs", "setting": "[1]", "value": "fails to displace; also recorded: did not produce any displacement"}, {"measurement": "displacement of [3H]CP-55,940 from hCB2Rs", "setting": "[3]", "value": "fails to displace; also recorded: did not produce any displacement"}]}, {"compound": "COc1ccc(C(=O)c2c(C)n(CCN3CCOCC3)c3cc(I)ccc23)cc1", "note": "[AM-630]", "values": [{"measurement": "reduction of G-protein activity, hCB2Rs", "setting": "[4]; CHO-hCB2 membranes, 10 μM", "value": 34, "unit": "%"}, {"measurement": "EMAX, Intracellular [3H]cAMP", "setting": "[5]; elevation of cAMP", "value": "214 ± 6.5^b %"}, {"measurement": "EC50", "setting": "[5]; increase of cAMP, 10 μM forskolin, read-out: EC50, Intracellular [3H]cAMP", "value": 398, "unit": "nM"}, {"measurement": "pEC50, Intracellular [3H]cAMP", "setting": "[5]; mean ± SEM", "value": "6.40 ± 0.096^c"}, {"measurement": "fold parallel shift-to-the-right of CP-55,940 concentration-effect curve, CHO-hCB2", "setting": "[6]; AM-630 1 μM pre-incubation", "value": 33, "unit": "fold"}, {"measurement": "IMAX of CP-55,940 after pre-incubation with the drug", "setting": "[6]; CHO-hCB2 cells, pre-incubation 30 min: OSP, NAF 10 μM, RAL, BAZ 2 μM, AM-630 1 μM", "value": "31.7 ± 0.3", "unit": "%"}, {"measurement": "Kb", "setting": "[6]; calculated from shift of CP-55,940 curve, intact CHO-hCB2 cells, read-out: Kb (antagonist dissociation constant), CHO-hCB2", "value": 55.4, "unit": "nM"}, {"measurement": "pKb, CHO-hCB2", "setting": "[6]; intact CHO-hCB2 cells, mean ± SEM", "value": "7.26 ± .064^b"}]}, {"compound": "Cc1c(C(=O)NN2CCOCC2)nn(-c2ccc(Cl)cc2Cl)c1-c1ccc(I)cc1", "note": "[AM-281]", "values": [{"measurement": "fold decrease in potency of CP-55,940, CHO-hCB1", "setting": "[7]; AM-281 1 μM pre-incubation", "value": 16, "unit": "fold"}, {"measurement": "IMAX of CP-55,940 after pre-incubation with the drug", "setting": "[7]; CHO-hCB1 cells, pre-incubation 30 min: OSP, NAF, BAZ 10 μM, RAL 2 μM, AM-281 1 μM", "value": "35.7 ± 0.9", "unit": "%"}, {"measurement": "Kb", "setting": "[7]; calculated from shift of CP-55,940 curve, intact CHO-hCB1 cells, read-out: Kb (antagonist dissociation constant), CHO-hCB1", "value": 155, "unit": "nM"}, {"measurement": "pKb, CHO-hCB1", "setting": "[7]; intact CHO-hCB1 cells, mean ± SEM", "value": "6.810 ± 0.061^a"}]}, {"compound": "CC(C)N1CCN(c2ccc(C(=O)c3c(-c4ccc(O)cc4)sc4cc(O)ccc34)cc2)CC1", "note": "[Y-134]", "values": [{"measurement": "intrinsic activity at hCB2Rs (partial or full inverse agonist)", "setting": "[4]", "value": "partial inverse agonist activity"}, {"measurement": "intrinsic activity at CB1Rs (partial or full inverse agonist)", "setting": "[2]", "value": "partial"}]}, {"compound": "CN(C)CCOc1ccc(/C(=C(/CCCl)c2ccccc2)c2ccc(O)cc2)cc1", "note": "[4OH-TOR, 4-hydroxy-toremifene]", "values": [{"measurement": "displacement of [3H]CP-55,940 from hCB1Rs", "setting": "[1]", "value": "approximately 50%"}]}, {"compound": "CC/C(=C(\\c1ccc(O)cc1)c1ccc(OCCNC)cc1)c1ccccc1", "note": "[ENDX, endoxifen]", "values": [{"measurement": "displacement of [3H]CP-55,940 from hCB1Rs", "setting": "[1]", "value": "approximately 50%"}]}, {"compound": "Oc1ccc2c(c1)CC[C@H](c1ccccc1)[C@@H]2c1ccc(OCCN2CCCC2)cc1", "note": "[LAS, lasofoxifene]", "values": [{"measurement": "intrinsic activity at hCB2Rs (partial or full inverse agonist)", "setting": "[4]", "value": "partial inverse agonist activity"}]}]}
